Assay type in all cases: cell-based
One experiment has as its system Gram +. The experiment is described as follows: MIC test, average over the 5 gram-positive test germs. Conditions: 24 h. As to the method: (§1) As to the antibacterial activity, there was determined the Least (Minimum) Inhibiting Concentration (MIC), by working according to the following operative conditions.
(§2) There were used suspensions of test germs (5 gram-positive and 15 gram-negative) having a known titre, kept freezed at -80°C and diluted, at the time of use, in peptonized water up to a concentration of 1-2.10⁷ cfu/ml.
(§3) A few mg of the products, according to the invention were weighed sufficient for preparing parent solutions in DMSO + NaOH (1N) containing 2560 µg/ml (64µg/ml/dish). From the thus prepared parent solutions there were prepared 12 serial dilutions (1:2) down to the concentration of 1.25 µg/ml.
(§4) 0.5 ml of the different dilutions of each product were distributed on dishes containing 19.5 ml of agarized medium (TSA), maintained in a fluid state at the temperature of 50°C. After slight stirring, the dishes were made to solidify and dry under hood (laminar flow).
(§5) The MIC tests (Least or "Minimum" Inhibiting Concentration) were performed by using a Steers multiwell inoculator having 36 wells, each containing 200 µl of bacterial suspension.
(§6) After inoculation, the dishes were placed into a thermostat and checked after 24 h of incubation at 35°C.
(§7) The MIC is defined as the lowermost product concentration (µg/ml) inhibiting the visible growth of the microorganisms.

The subject of experiment [1] is Acinebacter calcoloaceticus OSMPV 1130. The experiment is described as follows: MIC test, agar dilution with Steers multiwell inoculator. The settings on record: TSA dishes, 24 h at 35°C, read-out: Minimum Inhibiting Concentration. How it is done:
as §1, §2, §3, §4, §5, §6, §7
Background: Agar dilution tests growth on a series of plates holding different concentrations.

The test system of experiment [2] is Enterobacter cloacae OMNF 1153. The experiment is described as above. Conditions: OMNF1153, TSA dishes, 24 h at 35°C, read-out: Minimum Inhibiting Concentration. How it is done: as §1, §2, §3, §4, §5, §6, §7
Experiment [3] has as its system Enterobacter cloacae OMNF 1174. The experiment is described as above. The settings on record: OMNF1174, TSA dishes, 24 h at 35°C, read-out: Minimum Inhibiting Concentration. How it is done:
as §1, §2, §3, §4, §5, §6, §7

The test system of a further experiment is Escherichia coli 120. The description is as above. The settings on record: TSA dishes, 24 h at 35°C, read-out: Minimum Inhibiting Concentration. As to the method: as §1, §2, §3, §4, §5, §6, §7
Experiment [4] concerns Escherichia coli ATCC 8739. The experiment is described as above. The settings on record: ATCC8739, TSA dishes, 24 h at 35°C, read-out: Minimum Inhibiting Concentration. As to the method: as §1, §2, §3, §4, §5, §6, §7
In the next experiment the test system is Escherichia coli CNUR 1. The description is as above. Conditions: CNUR1, TSA dishes, 24 h at 35°C, read-out: Minimum Inhibiting Concentration. As to the method: as §1, §2, §3, §4, §5, §6, §7
A further experiment has as its system Escherichia coli CNUR 8. Described as above. Conditions: CNUR8, TSA dishes, 24 h at 35°C, read-out: Minimum Inhibiting Concentration. As to the method:
as §1, §2, §3, §4, §5, §6, §7

Another experiment relates to Escherichia coli ISF 432. The experiment is described as above. The settings on record: ISF432, TSA dishes, 24 h at 35°C, read-out: Minimum Inhibiting Concentration. As to the method: as §1, §2, §3, §4, §5, §6, §7
The test system of experiment [5] is Klebsiella pneumoniae ATCC 10031. The experiment is described as above. Conditions: ATCC10031, TSA dishes, 24 h at 35°C, read-out: Minimum Inhibiting Concentration. How it is done:
as §1, §2, §3, §4, §5, §6, §7

The next experiment concerns Proteus vulgaris CNUR 6. Described as above. The settings on record: CNUR6, TSA dishes, 24 h at 35°C, read-out: Minimum Inhibiting Concentration. How it is done:
as §1, §2, §3, §4, §5, §6, §7

Experiment [6] relates to Providencia stuardii CNUR 5. The experiment is described as above. Conditions: CNUR5, TSA dishes, 24 h at 35°C, read-out: Minimum Inhibiting Concentration. How it is done: as §1, §2, §3, §4, §5, §6, §7
In experiment [7] the test system is Pseudomonas aeruginosa ATCC 9027. The description is as above. Conditions: ATCC9027, TSA dishes, 24 h at 35°C, read-out: Minimum Inhibiting Concentration. How it is done: as §1, §2, §3, §4, §5, §6, §7
Experiment [8] concerns Pseudomonas aeruginosa CNUR 2. The description is as above. Conditions: CNUR2, TSA dishes, 24 h at 35°C, read-out: Minimum Inhibiting Concentration. As to the method: as §1, §2, §3, §4, §5, §6, §7
The subject of experiment [9] is Pseudomonas aeruginosa CNUR 4. The experiment is described as above. Conditions: CNUR4, TSA dishes, 24 h at 35°C, read-out: Minimum Inhibiting Concentration. How it is done: as §1, §2, §3, §4, §5, §6, §7
The test system of the next experiment is Shighella enteritidis. The description is as above. Conditions: TSA dishes, 24 h at 35°C, read-out: Minimum Inhibiting Concentration. As to the method: as §1, §2, §3, §4, §5, §6, §7
Experiment [10] concerns Staphylococcus aureus ATCC 6538. The experiment is described as above. The settings on record: ATCC6538, TSA dishes, 24 h at 35°C, read-out: Minimum Inhibiting Concentration. How it is done: as §1, §2, §3, §4, §5, §6, §7
Experiment [11] deals with Staphylococcus aureus MPR 5. The experiment is described as above. The settings on record: MPR5, TSA dishes, 24 h at 35°C, read-out: Minimum Inhibiting Concentration. How it is done:
as §1, §2, §3, §4, §5, §6, §7

The test system of experiment [12] is Staphylococcus epidermidis CPHL A2. The description is as above. Conditions: CPHLA2, TSA dishes, 24 h at 35°C, read-out: Minimum Inhibiting Concentration. How it is done: as §1, §2, §3, §4, §5, §6, §7
Experiment [13] deals with Staphylococcus epidermidis HCF Berset C. Described as above. The settings on record: TSA dishes, 24 h at 35°C, read-out: Minimum Inhibiting Concentration. How it is done: as §1, §2, §3, §4, §5, §6, §7
The test system of experiment [14] is Streptococcus facealis LEP Br. Described as above. Conditions: TSA dishes, 24 h at 35°C, read-out: Minimum Inhibiting Concentration. How it is done:
as §1, §2, §3, §4, §5, §6, §7

Another experiment deals with Gram -. Kind of experiment: MIC test, average over the 15 gram-negative test germs. The settings on record: 24 h. How it is done:
as §1, §2, §3, §4, §5, §6, §7

Setting [15] is: geometrical average of the MIC over the 5 Gram + strains, read-out: Geometrical Average.
The mark [16] stands for this setting: geometrical average of the MIC over the 15 Gram - strains, read-out: Geometrical Average.
The mark [17] stands for this setting: mean log of the MIC over the 15 Gram - strains, read-out: Log (converted).

≈ marks a conversion by molar mass, not a printed value. Read-outs that look alike come from different tables or passages of the source.

`CC(C)(C)n1cc(C(=O)O)c(=O)c2cc(N)c(N3CCN(c4ccccn4)CC3)cc21` [Compound 48, 6-amino-1-terbutyl-7-[4-(2-pyridyl)-1-piperazinyl]-1,4-dihydro-4-oxo-quinoline carboxylic acid]: the MIC in the experiment on Gram + (setting [15]) is 2 µg/mL; with Gram + (read-out: Log (converted)), 2 µg/mL (≈ 4.74 µM); in [1], 1 µg/mL (≈ 2.37 µM); in experiment [2], 128 µg/mL (≈ 304 µM); in experiment [3], 64 µg/mL (≈ 152 µM); with Escherichia coli 120, 16 µg/mL (≈ 38 µM). Besides, the MIC in experiment [4] is 0.5 µg/mL (≈ 1.19 µM); in the experiment with Escherichia coli CNUR 1 it was 64 µg/mL (≈ 152 µM); with Escherichia coli CNUR 8, 16 µg/mL (≈ 38 µM); with Escherichia coli ISF 432, 0.5 µg/mL (≈ 1.19 µM); in experiment [5], 0.25 µg/mL (≈ 0.593 µM); with Proteus vulgaris CNUR 6 it was 128 µg/mL (≈ 304 µM). In addition, the MIC in experiment [6] came to 128 µg/mL (≈ 304 µM); in experiment [7], 128 µg/mL (≈ 304 µM); in experiment [8], 128 µg/mL (≈ 304 µM); in experiment [9], 128 µg/mL (≈ 304 µM); with Shighella enteritidis it was 64 µg/mL (≈ 152 µM); in experiment [10], 1 µg/mL (≈ 2.37 µM). In addition, the MIC in experiment [11] is 1 µg/mL (≈ 2.37 µM); in experiment [12], 1 µg/mL (≈ 2.37 µM); in [13], 2 µg/mL (≈ 4.74 µM); in experiment [14], 16 µg/mL (≈ 38 µM); in the experiment with Gram - (setting [16]), 19.2 µg/mL (≈ 45.7 µM); in the experiment with Gram - (setting [17]), 19.2 µg/mL (≈ 45.6 µM).

With `CC(C)(C)n1cc(C(=O)O)c(=O)c2cc(N)c(N3CCSCC3)cc21` [Compound 46, 6-amino-1-terbutyl-7-(1-thiomorpholinyl)-1,4-dihydro-4-oxo-quinoline carboxylic acid], the MIC with Gram + (setting [15]) was 0.66 µg/mL; in the experiment with Gram + (read-out: Log (converted)), 0.659 µg/mL (≈ 1.82 µM); in [1], 0.5 µg/mL (≈ 1.38 µM); in [2], 2 µg/mL (≈ 5.53 µM); in [3], 2 µg/mL (≈ 5.53 µM); in the experiment on Escherichia coli 120, 0.25 µg/mL (≈ 0.692 µM). The MIC in [4] came out at 0.06 µg/mL (≈ 0.166 µM); in the experiment on Escherichia coli CNUR 1, 1 µg/mL (≈ 2.77 µM); in the experiment with Escherichia coli CNUR 8 it was 0.25 µg/mL (≈ 0.692 µM); in the experiment on Escherichia coli ISF 432 it was 0.03 µg/mL (≈ 0.083 µM); in experiment [5], 0.03 µg/mL (≈ 0.083 µM); with Proteus vulgaris CNUR 6 it was 128 µg/mL (≈ 354 µM). The MIC in experiment [6] was 4 µg/mL (≈ 11.1 µM); in experiment [7] it was 4 µg/mL (≈ 11.1 µM); in experiment [8], 16 µg/mL (≈ 44.3 µM); in [9], 128 µg/mL (≈ 354 µM); with Shighella enteritidis it was 2 µg/mL (≈ 5.53 µM); in experiment [10] it was 0.25 µg/mL (≈ 0.692 µM). In addition, the MIC was 0.25 µg/mL (≈ 0.692 µM) in [11]; 0.5 µg/mL (≈ 1.38 µM) in [12]; 0.5 µg/mL (≈ 1.38 µM) in experiment [13]; 8 µg/mL (≈ 22.1 µM) in [14]; 1.31 µg/mL (≈ 3.62 µM) in the experiment on Gram - (setting [16]); 1.31 µg/mL (≈ 3.62 µM) with Gram - (setting [17]).

Turning to `Nc1cc2c(=O)c(C(=O)O)cn(C3CC3)c2cc1N1CCCC1` [Compound 10], the MIC in the experiment with Gram + (read-out: Log (converted)) is 128 µg/mL (≈ 408 µM); in [1], 128 µg/mL (≈ 408 µM); in experiment [2], 16 µg/mL (≈ 51.1 µM); in experiment [3], 8 µg/mL (≈ 25.5 µM); with Escherichia coli 120, 4 µg/mL (≈ 12.8 µM); in experiment [4] it was 0.25 µg/mL (≈ 0.798 µM). The MIC in the experiment on Escherichia coli CNUR 1 is 16 µg/mL (≈ 51.1 µM); in the experiment with Escherichia coli CNUR 8, 8 µg/mL (≈ 25.5 µM); with Escherichia coli ISF 432, 0.25 µg/mL (≈ 0.798 µM); in experiment [5], 0.25 µg/mL (≈ 0.798 µM); with Proteus vulgaris CNUR 6, 128 µg/mL (≈ 408 µM); in experiment [6], 128 µg/mL (≈ 408 µM). For the same compound, the MIC is 128 µg/mL (≈ 408 µM) in experiment [7]; 128 µg/mL (≈ 408 µM) in experiment [8]; 128 µg/mL (≈ 408 µM) in [9]; 16 µg/mL (≈ 51.1 µM) with Shighella enteritidis; 128 µg/mL (≈ 408 µM) in [10]; 128 µg/mL (≈ 408 µM) in [11]. For the same compound, the MIC in [12] was 128 µg/mL (≈ 408 µM); in experiment [13] it was 128 µg/mL (≈ 408 µM); in experiment [14], 128 µg/mL (≈ 408 µM); with Gram - (setting [16]), 13.3 µg/mL (≈ 42.4 µM); in the experiment on Gram - (setting [17]), 13.3 µg/mL (≈ 42.5 µM).
